US6086918A, “Oral peptide pharmaceutical products” (Unigene Laboratories, Inc., priority 1998, dated 2000)

Tests used:
[1] = Pharmacokinetics of oral calcitonin (10.5 mg) in humans; type: in vivo, human; details: 10 milligrams of salmon calcitonin alone administered to humans
Method: The capsules were coated for 20 min with hydroxypropylmethylcellulose phthalate 50 in a pan coater and stored at 4° C. Fasted subjects were given 1 capsule followed by a glass of orange juice in the morning of the study. Samples of blood were taken 15 minutes before taking the capsules and at the indicated times after taking the calcitonin capsule. The concentration of calcitonin in blood was determined by competitive radioimmunoassay.

[2] = Blood levels of salmon calcitonin after direct injection of active components into duodenum, ilium or colon; type: in vivo; details: active components injected directly into the duodenum
From the text: The acid is believed to lower the local intestinal pH (where the active agent has been released) to levels below the optimal range for many intestinal proteases. This decrease in pH reduces the proteolytic activity of the intestinal proteases, thus affording protection to the peptide from potential degradation. The activity of these proteases is diminished by the temporarily acidic environment provided by the invention. It is preferred that sufficient acid be provided that local intestinal pH is lowered temporarily to 5.5 or below, preferably 4.7 or below and more preferably 3.5 or below. The sodium bicarbonate test described below (in the section captioned "the pH-Lowering Agent") is indicative of the required acid amount. […] The absorption enhancers of the invention synergistically promote peptide absorption into the blood while conditions of reduced proteolytic activity prevail.

[3] = Applicant's internal comparative tests of oral formulation, sCT versus PTH; type: in vivo; details: oral formulation of the invention
[4] = cited from earlier work

Structure (SMILES): CC(C)C[C@H](NC(=O)[C@H](CCCCN)NC(=O)CNC(=O)[C@H](CC(C)C)NC(=O)[C@@H](NC(=O)[C@@H]1CSSC[C@H](N)C(=O)N[C@@H](CO)C(=O)N[C@@H](CC(N)=O)C(=O)N[C@@H](CC(C)C)C(=O)N[C@@H](CO)C(=O)N[C@@H]([C@@H](C)O)C(=O)N1)C(C)C)C(=O)N[C@@H](CO)C(=O)N[C@@H](CCC(N)=O)C(=O)N[C@@H](CCC(=O)O)C(=O)N[C@@H](CC(C)C)C(=O)N[C@@H](Cc1c[nH]cn1)C(=O)N[C@@H](CCCCN)C(=O)N[C@@H](CC(C)C)C(=O)N[C@@H](CCC(N)=O)C(=O)N[C@H](C(=O)N[C@@H](Cc1ccc(O)cc1)C(=O)N1CCC[C@H]1C(=O)N[C@@H](CCCNC(=N)N)C(=O)N[C@H](C(=O)N[C@@H](CC(N)=O)C(=O)N[C@H](C(=O)NCC(=O)N[C@@H](CO)C(=O)NCC(=O)N[C@H](C(=O)N1CCC[C@H]1C(N)=O)[C@@H](C)O)[C@@H](C)O)[C@@H](C)O)[C@@H](C)O [Salmon calcitonin]
- serum levels of salmon calcitonin [1]: no detectable serum levels
- Tmax for blood levels of salmon calcitonin [2]: 5 to 15 min
- bioavailability compared with parathyroid hormone [3]: significantly exceeds that of parathyroid hormone
- peak levels at which some patients report gastrointestinal distress ([4]; in vivo): ≥ 200 picograms per milliliter
- detectable blood levels after injection ([4]; injection at conventional dosages): no detectable blood levels more than two hours after injection
- peak levels at which effective against osteoporosis ([4]; nasal, 200 International units): ≥ 10 picograms per milliliter
- half-life ([4]; subcutaneous administration in man): 20 to 40 min
- peak serum concentration ([4]; subcutaneous, 100 International units): about 250 picograms per milliliter
